In ChEMBL document CHEMBL4130634, “Discovery of Reversible DNA Methyltransferase and Lysine Methyltransferase G9a Inhibitors with Antitumoral in Vivo Efficacy” (J Med Chem, 2018):

Legend:
[1] = system: MV4-11; test: Antitumor activity against human MV4-11 cells xenografted in SCID-beige mouse assessed as tumor growth inhibition at 30 mg/kg/day via osmotic pump for 2 weeks relative to control; type: functional; settings: MV4-11, 336 h, read-out: TGI
[2] = target: T1, Histone-lysine N-methyltransferase EHMT2 (Homo sapiens, UniProt Q96KQ7); test: Inhibition of G9a (unknown origin)
T1 sequence (Q96KQ7 whole entry): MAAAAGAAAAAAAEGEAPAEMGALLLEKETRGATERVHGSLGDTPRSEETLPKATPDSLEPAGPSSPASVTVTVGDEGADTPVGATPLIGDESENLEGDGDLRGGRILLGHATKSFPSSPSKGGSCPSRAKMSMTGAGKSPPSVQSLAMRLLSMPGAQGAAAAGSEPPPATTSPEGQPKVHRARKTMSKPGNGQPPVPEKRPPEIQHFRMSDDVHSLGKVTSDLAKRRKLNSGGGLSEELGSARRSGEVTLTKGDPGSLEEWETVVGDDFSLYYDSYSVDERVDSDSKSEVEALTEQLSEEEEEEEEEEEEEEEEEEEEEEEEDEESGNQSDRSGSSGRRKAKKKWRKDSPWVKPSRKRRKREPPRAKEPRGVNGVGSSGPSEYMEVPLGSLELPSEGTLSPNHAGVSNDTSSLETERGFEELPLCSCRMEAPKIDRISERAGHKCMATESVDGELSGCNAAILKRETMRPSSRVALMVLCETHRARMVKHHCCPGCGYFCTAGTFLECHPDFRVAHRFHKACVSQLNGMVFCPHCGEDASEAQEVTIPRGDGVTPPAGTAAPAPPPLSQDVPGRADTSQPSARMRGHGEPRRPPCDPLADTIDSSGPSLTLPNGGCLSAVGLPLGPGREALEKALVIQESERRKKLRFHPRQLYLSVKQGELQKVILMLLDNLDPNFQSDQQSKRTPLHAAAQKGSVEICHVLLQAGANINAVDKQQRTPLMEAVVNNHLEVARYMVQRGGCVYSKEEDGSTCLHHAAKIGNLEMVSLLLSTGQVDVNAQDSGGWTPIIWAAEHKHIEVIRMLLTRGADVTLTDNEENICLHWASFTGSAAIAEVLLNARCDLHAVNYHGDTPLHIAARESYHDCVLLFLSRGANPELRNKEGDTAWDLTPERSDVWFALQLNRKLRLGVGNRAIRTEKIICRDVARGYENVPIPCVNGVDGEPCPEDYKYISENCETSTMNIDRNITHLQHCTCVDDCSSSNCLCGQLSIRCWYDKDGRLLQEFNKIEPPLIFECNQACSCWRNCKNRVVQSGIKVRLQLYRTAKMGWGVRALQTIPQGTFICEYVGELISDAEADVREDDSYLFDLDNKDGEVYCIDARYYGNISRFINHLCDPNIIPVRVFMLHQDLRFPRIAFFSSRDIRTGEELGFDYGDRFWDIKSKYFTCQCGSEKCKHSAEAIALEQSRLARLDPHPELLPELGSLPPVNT

[3] = target: T1, Histone-lysine N-methyltransferase EHMT2; test: Inhibition of human G9a using biotinylated-H3K9 peptide as substrate after 1 hr in presence of SAM by TR-FRET assay

Row | SMILES | inhibition in vivo at 30 mg/kg/day [1] | IC50 [2] | IC50 [3]
1 | COc1cc2c(cc1OCCCN1CCCC1)N=C(N)C21CCC1 | 45% | – | –
2 | Cc1cc(Nc2ccc(NC(=O)c3ccc(Nc4ccnc5ccccc45)cc3)cc2)nc(N)n1 | – | 59 µM | > 10 µM
